Measurements: patent US20250129096A1, “ANNULATED 2-AMINO-3-CYANO THIOPHENES AND DERIVATIVES FOR THE TREATMENT OF CANCER” (Boehringer Ingelheim Int'l GmbH Corp., priority 2021, published 2025)

Key:
[1] = target: T1, KRAS (G12C)::SOS1 (Homo sapiens, UniProt P01116, C118S/C51S/C80L/G12C); experiment: KRAS::SOS1 AlphaScreen binding assay, KRAS G12C
T1 construct: KRAS (G12C) 1-169, N-terminal 6His-tag for purification, cleaved off; 6His-tag (N, cleaved yes)
Method: (§1) Low IC50 values in this assay setting are indicative of strong inhibition of protein-protein interaction between SOS1 and KRAS:
(§2) These assays measure the inhibitory effect of compounds on KRAS mutant protein-protein interactions using the Alpha Screen technology by Perkin Elmer.
(§3) For the chosen highest assay concentration of 100 μM, 150 nL of compound solution are transferred from a 10 mM DMSO compound stock solution. A series of eleven fivefold dilutions per compound are transferred to the assay plate, compound dilutions are tested in duplicates. DMSO are added as backfill to a total volume of 150 nL.
(§4) The assays run on a fully automated robotic system in a darkened room below 100 Lux. To 150 nl of compound dilution 10 μl of a mix including KRAS mutant protein, SOS1 (final assay concentrations see above) and GDP nucleotide (Sigma G7127; final assay concentration 10 μM) in assay buffer (1×PBS, 0.1% BSA, 0.05% Tween 20) are added into columns 1-24. After 30 minutes incubation time 5 μl of Alpha Screen bead mix in assay buffer are added into columns 1-23.
(§5) Plates are kept at room temperature in a darkened incubator. After an additional 60 minutes incubation time the signal is measured in a PerkinElmer Envision HTS Multilabel Reader using the AlphaScreen specs from PerkinElmer.
(§6) IC50 values are calculated and analyzed with Boehringer Ingelheim's MEGALAB IC50 application using a 4 parametric logistic model.

[2] = Caco-2 assay; assay type: in vitro ADME; settings: human; for Papp A→B at 90 min, 10 μM: Caco-2, apical to basolateral, pH 7.4, read-out: Caco PappAB; for efflux ratio at 90 min, 10 μM: Caco-2, pH 7.4, efflux ratio PappBA/PappAB, read-out: Caco ER
Excerpt: The assay provides information on the potential of a compound to pass the cell membrane, on the extent of oral absorption as well as on whether the compound is actively transported by uptake and/or efflux transporters. Permeability measurements across polarized, confluent Caco-2 cell monolayers grown on permeable filter supports (Corning, catalog #3391) are used. […] The receiver and donor compartments contain 0.25% bovine serum albumine (BSA) in assay buffer. Passive diffusion and/or active transport of compounds across the monolayer is measured in both apical to basolateral (a-b) and basolateral to apical (b-a) direction. a-b permeability (PappAB) represents drug absorption from the intestine into the blood and b-a permeability (PappBA) drug secretion from the blood back into the intestine via both passive permeability as well as active transport mechanisms mediated by efflux and uptake transporters that are expressed on the Caco-2 cells. After a pre-incubation of 25-30 min at 37° C., at predefined time points (0, 30, 60 and 90 min), samples were taken from the receiver and donor compartment, respectively. Concentrations of test compounds in samples were measured by HPLC/MS/MS, samples from the donor compartment were diluted 1:50 (v:v) with assay buffer, samples from receiver compartment were measured without dilution.
Apparent permeabilities in a-b (PappAB) and b-a (PappBA) directions are calculated according to the formula:
[formula] • Vrec [mL]: buffer volume in receiver compartment • Cdon [μmol/mL]: concentration of test compound in donor compartment at t=0 • ΔCrec: difference between concentrations of test compound in receiver compartment at start and end of incubation time • Δt: Incubation time • Vrec·ΔCrec/Δt [μmol/min]: Amount of compound transferred to receiver compartment per time • A [cm^2]: filter surface
Caco-2 efflux ratios (ER) are calculated as the ratio of PappBA/PappAB.

[3] = target: T2, CYP3A4 (Homo sapiens, UniProt P08684); experiment: Mechanism based inhibition of CYP3A4 assay (MBI 3A4); assay type: in vitro ADME; settings: 25 uM, hydroxy-midazolam formation after 30 min preincubation relative to 0 min, human liver microsomes
T2 construct: assayed in human liver microsomes (0.02 mg/mL) with midazolam (15 μM) as a substrate; from tissue; host or cells: human liver microsomes
Method: After preincubation, the incubate is diluted 1:10 and the substrate midazolam is added for the main incubation (15 min). The main incubation is quenched with acetonitrile and the formation of hydroxy-midazolam is quantified via LC/MS-MS. The formation of hydroxy-midazolam from the 30 min preincubation relative to the formation from the 0 min preincubation is used as a readout. Values of less than 100% mean that the substrate midazolam is metabolized to a lower extent upon 30 min preincubation compared to 0 min preincubation. In general low effects upon 30 min preincubation are desired (corresponding to values close to 100%/not different to the values determined with water control).

[4] = target: T3, KRAS (G12V)::SOS1 (Homo sapiens, UniProt P01116, C118S/G12V); experiment: KRAS::SOS1 AlphaScreen binding assay, KRAS G12V
T3 construct: KRAS (G12V) 1-169, N-terminal 6His-tag, for purification, cleaved off; 6His-tag (N, cleaved yes); TEV cleavage site
Method: as §1, §2, §3, §4, §5, §6

[5] = test system: NCI-H358 cells (NSCLC, G12C); experiment: NCI-H358 CTG proliferation assay (120 h), assay 2; assay type: cell-based; settings: Homo sapiens, CellTiter-Glo, 384-well, 200 cells per well
Method: NCI-1H358 cells (ATCC No. CRL-5807) are dispensed into white bottom opaque 96 well plates (Perkin Elmer cat no. 5680) at a density of 2000 cells per well in 100 μL RPM 1-1640 ATCC-Formulation (Gibco #A10491)+10% FCS (fetal calf serum) (assay 1) or into black 384-well plates, flat and clear bottom (Greiner, PNr. 781091) at a density of 200 cells per well in 60 μl RPMI-1640 ATCC-Formulation (Gibco #A10491)+10% FCS (fetal calf serum) (assay 2). […] Compounds (10 mM stock in DMSO) are added at logarithmic dose series using the HP Digital Dispenser D300 (Tecan) (assay 1) or the ECHO acoustic liquid handler system (Beckman Coulter) (assay 2), normalizing for added DMSO and including DMSO controls. For the TO time point measurement, untreated cells are analyzed at the time of compound addition. Plates are incubated for 120 h, and cell viability is measured using CellTiter-Glo luminescent cell viability reagent (Promega product code G7570). Viability (stated as percent of control) is defined as relative luminescence units RLU of each well divided by the RLU of cells in DMSO controls. IC50 values are determined from viability measurements by non-linear regression using a four-parameter model.

T2 sequence (P08684 whole entry): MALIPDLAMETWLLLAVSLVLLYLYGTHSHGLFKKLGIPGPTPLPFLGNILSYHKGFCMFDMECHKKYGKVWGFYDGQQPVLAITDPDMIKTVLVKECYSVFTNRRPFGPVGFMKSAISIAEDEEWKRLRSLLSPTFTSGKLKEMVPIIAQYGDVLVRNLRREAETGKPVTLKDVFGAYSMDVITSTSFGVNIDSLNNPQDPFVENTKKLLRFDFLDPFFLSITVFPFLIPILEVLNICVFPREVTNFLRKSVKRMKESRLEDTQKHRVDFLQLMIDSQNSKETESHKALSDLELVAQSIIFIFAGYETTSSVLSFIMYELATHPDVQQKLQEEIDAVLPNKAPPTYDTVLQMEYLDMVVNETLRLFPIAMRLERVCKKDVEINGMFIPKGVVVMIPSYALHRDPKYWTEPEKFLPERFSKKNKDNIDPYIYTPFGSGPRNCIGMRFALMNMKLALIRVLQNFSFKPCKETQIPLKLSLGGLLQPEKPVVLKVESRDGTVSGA
T1 sequence (P01116 1-169 isoform P01116-2 G12C/C51S/C80L/C118S): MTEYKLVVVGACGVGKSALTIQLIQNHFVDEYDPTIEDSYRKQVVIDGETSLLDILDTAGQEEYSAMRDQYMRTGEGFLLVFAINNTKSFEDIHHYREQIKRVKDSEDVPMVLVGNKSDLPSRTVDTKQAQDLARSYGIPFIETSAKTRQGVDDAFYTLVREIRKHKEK
T3 sequence (P01116 1-169 isoform P01116-2 G12V/C118S): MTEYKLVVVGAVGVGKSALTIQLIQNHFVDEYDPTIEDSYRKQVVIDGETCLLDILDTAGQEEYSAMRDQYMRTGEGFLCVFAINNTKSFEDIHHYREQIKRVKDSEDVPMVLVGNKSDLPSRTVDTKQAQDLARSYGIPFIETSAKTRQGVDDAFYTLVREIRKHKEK

## C[C@H]1CNCCCN1c1nccc(-c2noc3c2CCC[C@@]32CCCc3sc(N)c(C#N)c32)n1 (single isomer, unassigned) [IIb-5]
[1]
  IC50: 7 nM
[2]
  Papp A→B at 90 min, 10 μM: 130 nm/s
  efflux ratio at 90 min, 10 μM: 1.2
[3]
  MBI 3A4: 65%

## CC1Cc2c(-c3ccnc(N4CCCNC[C@@H]4C)n3)noc2C2(CCCc3sc(N)c(C#N)c32)C1 (some centres unmarked) [IIb-1]
[1]
  IC50: 44 nM

## C[C@H]1CNCCCN1c1nccc(-c2noc3c2CC(F)(F)CC32CCCc3sc(N)c(C#N)c32)n1 (some centres unmarked) [IIb-2]
[1]
  IC50: 39 nM

## C[C@H](Oc1ccnc(-c2noc3c2CCC[C@@]32CCCc3sc(N)c(C#N)c32)n1)[C@@H]1CCCN1C [IIb-3]
[1]
  IC50: 3 nM
[2]
  Papp A→B at 90 min, 10 μM: 170 nm/s
  efflux ratio at 90 min, 10 μM: 2
[4]
  IC50: 2 nM
[3]
  MBI 3A4: 69%
[5]
  IC50: 743 nM

## C[C@H]1CNCCCN1c1nccc(-c2noc3c2CSCC32CCCc3sc(N)c(C#N)c32)n1 (some centres unmarked) [IIb-4]
[1]
  IC50: 19 nM

## C[C@H]1CNCCCN1c1nccc(-c2noc3c2OCCC32CCCc3sc(N)c(C#N)c32)n1 (some centres unmarked) [IIb-7]
[1]
  IC50: 4 nM

## C[C@H](Oc1nccc(-c2noc3c2CCC[C@@]32CCCc3sc(N)c(C#N)c32)n1)[C@@]1(C)CCCN1C [IIe-1]
[1]
  IC50: 8 nM

## C[C@H]1CNCCN1c1nccc(-c2noc3c2CCC[C@@]32CCCc3sc(N)c(C#N)c32)n1 [IIf-1]
[2]
  Papp A→B at 90 min, 10 μM: 120 nm/s
[5]
  IC50: 3000 nM

## C[C@@H]1NCCCN(c2nccc(-c3onc4c3CCC[C@@]43CCCc4sc(N)c(C#N)c43)n2)[C@H]1C [Ib-2]
[1]
  IC50: 14 nM

## C[C@H]1CNCCCN1c1ncnc(-c2onc3c2CCC[C@@]32CCCc3sc(N)c(C#N)c32)n1 [Ib-4]
[1]
  IC50: 9 nM

## C[C@H]1[C@@H]2CCCN2CCCN1c1nccc(-c2onc3c2CCC[C@@]32CCCc3sc(N)c(C#N)c32)n1 [Id-1]
[1]
  IC50: 3 nM
[4]
  IC50: 8 nM

## CO[C@@H]1C[C@@H]([C@H](C)Oc2nccc(-c3onc4c3CCC[C@@]43CCCc4sc(N)c(C#N)c43)n2)N(C)C1 [Ie-1]
[1]
  IC50: 3 nM

## C[C@H](Oc1nccc(-c2onc3c2CCC[C@@]32CCCc3sc(N)c(C#N)c32)n1)[C@@H]1C[C@@H](F)CN1C [Ie-2]
[1]
  IC50: 5 nM
[2]
  Papp A→B at 90 min, 10 μM: 330 nm/s
  efflux ratio at 90 min, 10 μM: 0.6
[4]
  IC50: 23 nM

## CCN1[C@H]2C[C@H]2C[C@H]1[C@H](C)Oc1nccc(-c2onc3c2CCC[C@@]32CCCc3sc(N)c(C#N)c32)n1 [Ie-3]
[1]
  IC50: 7 nM
[5]
  IC50: 1710 nM

## CC(Oc1nccc(-c2onc3c2CCC[C@@]32CCCc3sc(N)c(C#N)c32)n1)C12CCCN1CCC2 (some centres unmarked) [Ie-5]
[1]
  IC50: 6 nM

## C[C@H]1CNCCCN1c1nccc(-c2onc3c2CCC[C@@]32CCCc3sc(N)c(C#N)c32)n1 [If-1]
[1]
  IC50: 8 nM
[2]
  Papp A→B at 90 min, 10 μM: 94 nm/s
  efflux ratio at 90 min, 10 μM: 3.2
[4]
  IC50: 201 nM
[3]
  MBI 3A4: 60%
[5]
  IC50: 2200 nM

## C[C@H](Oc1nccc(-c2onc3c2CCC[C@@]32CCCc3sc(N)c(C#N)c32)n1)[C@@H]1C[C@@H]2C[C@@H]2N1 [If-2]
[1]
  IC50: 15 nM

## C[C@H](Oc1nccc(-c2onc3c2CCC[C@@]32CCCc3sc(N)c(C#N)c32)n1)[C@@H]1C[C@@H]2C[C@@H]2N1C [Ih-1]
[1]
  IC50: 7 nM
[5]
  IC50: 3570 nM
